Assay results from patent US12528816B2, “Substituted imidazo [1,2-b] pyridazines and [1, 2, 4] triazolo [ 4,3-b] pyridazines as camkii inhibitors” (Cardurion Pharmaceuticals, INC., priority 2020, dated 2026).

Each compound was assayed against T1, human CaMKIIδ (Homo sapiens, UniProt Q13557) (assay: Evaluation of in vitro CaMKII inhibitory activity (binding assay, TR-FRET)). Details: human CaMKIIδ, TR-FRET binding assay; class symbols A/B/C; read-out: Act (CaMKII inhibitory activity, binding assay).
T1 construct: Full-length, glutathione-S-transferase(GST)-tagged, human CaMKIIδ was purchased from Carna Biosciences; purchased Carna Biosciences (CaMKIIδ); Wako Pure Chemical Industries (calmodulin) 02-111
In short: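 Inhibitors, in eight concentrations of 4-fold dilution, were incubated 1 h at room temperature with a protein–fluorescent probe premix preformed 30 min on ice, containing calmodulin and terbium anti-GST antibody. Displacement read by TR-FRET in duplicate; IC50 by logistic fitting.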
In the case of `COc1ccnc(-c2cnc3ccc(-c4ccc(F)c(O[C@@H](CF)Cn5cnnn5)c4)nn23)c1C#N` [Example 475, 2-[6-(4-fluoro-3-{[(2R)-1-fluoro-3-(1H-tetrazol-1-yl)propan-2-yl]oxy}phenyl)imidazo[1,2-b]pyridazin-3-yl]-4-methoxypyridine-3-carbonitrile], the IC50 is reported as < 10 nM. For `C[C@@H](Cn1cnnn1)Oc1cc(-c2ccc3ncn(-c4cccc(C#N)n4)c3n2)ccc1F` [compound 159], the IC50 was < 10 nM. For `C[C@@H](Cn1cnnn1)Oc1cc(-c2ccn3ncc(-c4ccn(C)n4)c3n2)ccc1F` [compound 25], the IC50 was < 10 nM.

Same assay, conditions: in vitro CaMKII inhibitory activity (binding assay), human CaMKIIδ; read-out: Act
In the case of `C[C@@H](Cn1cnnn1)Oc1cccc(-c2ccc3ncc(-c4nccc(OCC(F)F)c4C#N)n3n2)c1` [Example 354, 4-(2,2-difluoroethoxy)-2-[6-(3-{[(2S)-1-(1H-tetrazol-1-yl)propan-2-yl]oxy}phenyl)imidazo[1,2-b]pyridazin-3-yl]pyridine-3-carbonitrile], the IC50 is reported as < 10 nM. With `C[C@@H](Cn1cnnn1)Oc1cccc(-c2ccc3ncc(-c4nccc(N(C)C)c4C#N)n3n2)c1` [compound 356] the IC50 was < 10 nM. For `C[C@@H](Cn1cnnn1)Oc1cccc(-c2ccc3ncc(-c4nc(Cl)ccc4C#N)n3n2)c1` [compound 386], the IC50 was < 10 nM.
